What is called IC50 is the concentration at which inhibition is half-maximal. For orientation: inhibition means the percentage by which the read-out fell short of the control. The low end stands for a response near the control, the high end for a response far below the control.

For the first assay, the target named is T1, rat NaPi-2b (Rattus norvegicus, UniProt Q9JJ09).
T1 construct: expressed in transfected cells; host or cells: Xenopus oocytes injected with cRNA
T1 sequence (Q9JJ09 1-695): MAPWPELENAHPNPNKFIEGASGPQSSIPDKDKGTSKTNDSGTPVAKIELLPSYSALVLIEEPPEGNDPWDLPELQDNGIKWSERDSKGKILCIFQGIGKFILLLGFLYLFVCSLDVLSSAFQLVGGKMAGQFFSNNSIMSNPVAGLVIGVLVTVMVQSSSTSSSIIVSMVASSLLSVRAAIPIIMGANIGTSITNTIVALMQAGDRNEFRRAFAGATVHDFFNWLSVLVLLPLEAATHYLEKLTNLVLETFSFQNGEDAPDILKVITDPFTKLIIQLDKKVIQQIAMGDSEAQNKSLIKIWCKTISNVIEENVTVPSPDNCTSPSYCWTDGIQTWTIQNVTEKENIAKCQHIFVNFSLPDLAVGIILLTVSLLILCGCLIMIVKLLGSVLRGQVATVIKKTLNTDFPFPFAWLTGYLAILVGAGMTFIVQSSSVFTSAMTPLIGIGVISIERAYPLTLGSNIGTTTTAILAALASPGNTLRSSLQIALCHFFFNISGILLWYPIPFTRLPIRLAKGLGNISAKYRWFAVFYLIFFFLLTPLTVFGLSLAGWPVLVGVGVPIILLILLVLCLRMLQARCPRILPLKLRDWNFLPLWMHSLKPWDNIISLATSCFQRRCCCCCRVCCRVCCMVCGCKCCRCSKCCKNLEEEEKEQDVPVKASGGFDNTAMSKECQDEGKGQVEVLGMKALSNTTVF
Put plainly: Sodium-dependent phosphate uptake of Xenopus oocytes which expressed NaPi-2b (32P). The assay is classed as cell-based. The note with it: Xenopus oocytes expressing rat NaPi-2b, 32P radioactive phosphorus; read-out: IC50 (phosphate uptake inhibitory activity). In outline:
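Read-out is 32P phosphate uptake into Xenopus oocytes expressing rat intestinal NaPi-2b (cRNA injection, 2-day culture). Inhibition at 300 μM and 100 μM was derived from a single inhibition curve and given as percent.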
Regarding `O=C(Nc1ccc(OCCN2CCCCC2)cc1C(=O)N/N=C/c1ccc(Cl)c(C(F)(F)F)c1)c1cccc(CSCCO)c1` [Compound 1044, N-[2-(4-Chloro-3-trifluoromethyl-benzylidene-hydrazinocarbonyl)-4-(2-piperidin-1-yl-ethoxy)-phenyl]-3-(2-hydroxy-ethylsulfanylmethyl)-benzamide], the IC50 came to 2.13 µM. Consider `COc1ccc(C(=O)Nc2ccccc2C(=O)N/N=C/c2ccc(N(C)C)cc2)cc1OC` [Compound 104, N-[2-(4-Dimethylamino-benzylidene-hydrazinocarbonyl)-phenyl]-3,4-dimethoxy-benzamide], for which the IC50 was 11.3 µM. Still for that read-out and setting: as for `COc1cc(OC)cc(C(=O)Nc2ccc(Br)cc2C(=O)N/N=C/c2cccc(Cl)c2)c1` [Compound 116, N-[4-Bromo-2-(3-chloro-benzylidene-hydrazinocarbonyl)-phenyl]-3,5-dimethoxy-benzamide], the figure is 7.01 µM; as for `Cc1ccc(/C=N/NC(=O)c2c(NC(=O)c3cccc(CN4CCC(N5CCCCC5)CC4)c3)sc3c2CCCC3)cc1` [Compound 616, 3-[1,4′]Bipiperidinyl-1′-ylmethyl-N-[3-(4-methyl-benzylidene-hydrazinocarbonyl)-4,5,6,7-tetrahydro-benzo[b]thiophen-2-yl]-benzamide], 13.9 µM.

For `Cc1ccc(/C=N/NC(=O)c2cc(Br)ccc2NC(=O)c2ccc(CNCCN3CCOCC3)cc2)cc1C` [Compound 281, N-[4-Bromo-2-(3,4-dimethyl-benzylidene-hydrazinocarbonyl)-phenyl]-4-[(2-morpholin-4-yl-ethylamino)-methyl]-benzamide], the half-inhibitory concentration (IC50) worked out at 4.6 µM. On the same count and under the same terms, as for `CCN(CC)CCNCc1cccc(C(=O)Nc2scc(C)c2C(=O)N/N=C/c2ccc(Cl)c(C(F)(F)F)c2)c1` [Compound 585, N-[3-(4-Chloro-3-trifluoromethyl-benzylidene-hydrazinocarbonyl)-4-methyl-thiophen-2-yl]-3-[(2-diethylamino-ethylamino)-methyl]-benzamide], the figure is < 3 µM. With `Cc1ccc(/C=N/NC(=O)c2cc(Cl)ccc2NC(=O)c2ccc(CN(C)CCO)cc2)cc1C` [Compound 416, N-[4-Chloro-2-(3,4-dimethyl-benzylidene-hydrazinocarbonyl)-phenyl]-4-{[(2-hydroxy-ethyl)-methyl-amino]-methyl}-benzamide], the IC50 stood at 3.25 µM.

Turning to `CC(O)CN(Cc1cccc(C(=O)Nc2ccc(N3CCCC3=O)cc2C(=O)N/N=C/c2ccc(F)cc2)c1)CC(C)O` (centres unmarked) [Compound 947, 3-{[Bis-(2-hydroxy-propyl)-amino]-methyl}-N-[2-(4-fluoro-benzylidene-hydrazinocarbonyl)-4-(2-oxo-pyrrolidin-1-yl)-phenyl]-benzamide], the IC50 was determined as 30.2 µM. The same measure, in the same setting: the result for `CCN(CC)CCN(C)Cc1cccc(C(=O)Nc2ccc(I)cc2C(=O)N/N=C/c2ccc(F)cc2)c1` [Compound 473, 3-{[(2-Diethylamino-ethyl)-methyl-amino]-methyl}-N-[2-(4-fluoro-benzylidene-hydrazinocarbonyl)-4-iodo-phenyl]-benzamide] reads < 3 µM; that for `CCCN(CCC)c1ccc(NC(=O)c2cccc(CN(C)CCN(CC)CC)c2)c(C(=O)N/N=C/c2ccc(Cl)c(C(F)(F)F)c2)c1` [Compound 911, N-[2-(4-Chloro-3-trifluoromethyl-benzylidene-hydrazinocarbonyl)-4-dipropylamino-phenyl]-3-{[(2-diethylamino-ethyl)-methyl-amino]-methyl}-benzamide], < 1 µM; that for `Cc1ccc(/C=N/NC(=O)c2cc(Cl)ccc2NC(=O)c2cccc(CS(=O)(=O)Cc3ccco3)c2)cc1C` [Compound 686, N-[4-Chloro-2-(3,4-dimethyl-benzylidene-hydrazinocarbonyl)-phenyl]-3-(furan-2-ylmethanesulfonylmethyl)-benzamide], < 3 µM. Still for that read-out and setting: as for `CCN(CC)CCN(C)Cc1cccc(C(=O)Nc2ccc(Cl)cc2C(=O)N/N=C/c2ccc(F)cc2)c1` [Compound 380, N-[4-Chloro-2-(4-fluoro-benzylidene-hydrazinocarbonyl)-phenyl]-3-{[(2-diethylamino-ethyl)-methyl-amino]-methyl}-benzamide], the figure is 0.35 µM; as for `CCc1ccc(C(=O)Nc2ccc(Br)cc2C(=O)N/N=C/c2ccc(C)cc2)cc1` [Compound 181, N-[4-Bromo-2-(4-methyl-benzylidene-hydrazinocarbonyl)-phenyl]-4-ethyl-benzamide], 3.16 µM. On the same count and under the same terms, the result for `CCN(CC)CCN(C)Cc1cccc(C(=O)Nc2ccc(OCCOCCOC)cc2C(=O)N/N=C/c2ccc(OC)cc2)c1` [Compound 1037, 3-{[(2-Diethylamino-ethyl)-methyl-amino]-methyl}-N-{2-(4-methoxy-benzylidene-hydrazinocarbonyl)-4-[2-(2-methoxy-ethoxy)-ethoxy]-phenyl}-benzamide] reads 38.5 µM.

As for `O=C(Nc1ccc(Br)cc1C(=O)N/N=C/c1ccc(Cl)c(C(F)(F)F)c1)c1ccc(CSCCO)cc1` [Compound 266, N-[4-Bromo-2-(4-chloro-3-trifluoromethyl-benzylidene-hydrazinocarbonyl)-phenyl]-4-(2-hydroxy-ethylsulfanylmethyl)-benzamide], the 50% inhibitory concentration (IC50) is < 1 µM.

In the case of `Cc1ccc(/C=N/NC(=O)c2ccsc2NC(=O)c2cccc(CN(CC(C)O)CC(C)O)c2)cc1` (centres unmarked) [Compound 671, 3-{[Bis-(2-hydroxy-propyl)-amino]-methyl}-N-[3-(4-methyl-benzylidene-hydrazinocarbonyl)-thiophen-2-yl]-benzamide], the IC50 is < 3 µM. As for `COc1ccc(C(=O)Nc2ccccc2C(=O)N/N=C/c2cccc(C)c2)cc1` [Compound 49, 4-Methoxy-N-[2-(3-methyl-benzylidene-hydrazinocarbonyl)-phenyl]-benzamide], the IC50 is 3.37 µM. Turning to `CCN(CC)CCN(C)Cc1cccc(C(=O)Nc2sc3c(c2C(=O)N/N=C/c2ccc(Cl)c(C(F)(F)F)c2)CCCC3)c1` [Compound 613, N-[3-(4-Chloro-3-trifluoromethyl-benzylidene-hydrazinocarbonyl)-4,5,6,7-tetrahydro-benzo[b]thiophen-2-yl]-3-{[(2-diethylamino-ethyl)-methyl-amino]-methyl}-benzamide], the IC50 turned out to be 1.41 µM.

Turning to `CCN(CC)CCN(C)Cc1cccc(C(=O)Nc2ccc(OCCOCCOC)cc2C(=O)N/N=C/c2cccc(F)c2)c1` [Compound 1033, 3-{[(2-Diethylamino-ethyl)-methyl-amino]-methyl}-N-{2-(3-fluoro-benzylidene-hydrazinocarbonyl)-4-[2-(2-methoxy-ethoxy)-ethoxy]-phenyl}-benzamide], the IC50 stood at 18.7 µM. In the case of `COc1ccc(C(=O)Nc2ccc(Br)cc2C(=O)N/N=C/c2ccc(Cl)c(C(F)(F)F)c2)cc1OC` [Compound 87, N-[4-Bromo-2-(4-chloro-3-trifluoromethyl-benzylidene-hydrazinocarbonyl)-phenyl]-3,4-dimethoxy-benzamide], the IC50 came to 0.29 µM. For `O=C(Nc1ccc(Cl)cc1C(=O)N/N=C/c1cccc(F)c1)c1cccc(CSCC(O)CO)c1` (centres unmarked) [Compound 1007, N-[4-Chloro-2-(3-fluoro-benzylidene-hydrazinocarbonyl)-phenyl]-3-(2,3-dihydroxy-propylsulfanylmethyl)-benzamide], the IC50 is 0.4 µM.

The same assay, now with this note: phosphate uptake, oocytes expressing rat NaPi-2b; 300 μM, determined from inhibition curve.
The compound `COc1ccc(/C=N/NC(=O)c2cc(Br)sc2NC(=O)c2cccc(CN(C)C)c2)cc1` [Compound 930, N-[5-Bromo-3-(4-methoxy-benzylidene-hydrazinocarbonyl)-thiophen-2-yl]-3-dimethylaminomethyl-benzamide] had an inhibition at 300 µM of 40.2%.

For `CCN(CC)CCN(C)Cc1cccc(C(=O)Nc2c(C)csc2C(=O)N/N=C/c2ccc(OC)cc2)c1` [Compound 712, 3-{[(2-Diethylamino-ethyl)-methyl-amino]-methyl}-N-[2-(4-methoxy-benzylidene-hydrazinocarbonyl)-4-methyl-thiophen-3-yl]-benzamide], the “Inhibition (%) (300 μM)” value was found to be 48.73%. In turn, `O=c1c2cc(Cl)ccc2nc(-c2cccc(CSCCS(=O)(=O)O)c2)n1/N=C/c1ccc(Cl)c(C(F)(F)F)c1` [Compound 703, 2-(3-{6-Chloro-3-[(4-chloro-3-trifluoromethyl-benzylidene)-amino]-4-oxo-3,4-dihydro-quinazolin-2-yl}-benzylsulfanyl)-ethanesulfonic acid] showed an inhibition at 300 µM of 57.9%. `Cc1csc(C(=O)N/N=C/c2cccc(F)c2)c1NC(=O)c1cccc(CSCCCO)c1` [Compound 527, N-[2-(3-Fluoro-benzylidene-hydrazinocarbonyl)-4-methyl-thiophen-3-yl]-3-(3-hydroxy-propylsulfanylmethyl)-benzamide] gave an inhibition at 300 µM of 40.9%. The same measure, in the same setting: the result for `Cc1ccc(/C=N/NC(=O)c2c(C)csc2NC(=O)c2cccc(CSCCS(=O)(=O)O)c2)cc1` [Compound 782, 2-{3-[4-Methyl-3-(4-methyl-benzylidene-hydrazinocarbonyl)-thiophen-2-ylcarbamoyl]-benzylsulfanyl}-ethanesulfonic acid] reads 86.8%.

Values taken from patent publication US8134015B2, “Compound inhibiting in vivo phosphorous transport and medicine containing the same” (Kyowa Hakko Kirin Co., Ltd., priority 2003, dated 2012).
